This note sets out measurements from paper PMC11641365, “Evaluation of In Vitro Biological Activity of Flavanone/Chromanone Derivatives: Molecular Analysis of Anticancer Mechanisms in Colorectal Cancer” (International Journal of Molecular Sciences, 2024).

Common to all, as to assay type: cell-based, human
In one assay the test system is HCT 116. Put plainly: Hydrogen peroxide level, H2DCFDA probe. The following applies: compound at IC50, 24 h. The protocol: (§1) Cellular H2O2 levels were assessed using 2′,7′-dichlorodihydrofluorescein diacetate (H2DCFDA, Sigma-Aldrich, St. Louis, MO, USA), a well-established fluorogenic probe for intracellular hydrogen peroxide detection. H2DCFDA readily diffuses across the cell membrane and is subsequently hydrolyzed by intracellular esterases to non-fluorescent H2DCF. Oxidation of H2DCF by ROS generates highly fluorescent 2′,7′-dichlorofluorescein (DCF), which accumulates in the cytosol. […] The fluorescence intensity of DCF is directly proportional to the concentration of ROS within the cell.
(§2) Cells were seeded in black 96-well fluorometric microplates at a density of 10 × 10^3 cells/mL. […] Following compound incubation, the medium was removed, and the cell monolayers were washed twice with HBSS (140 mM NaCl, 5 mM KCl, 0.8 mM MgCl2, 1.8 mM CaCl2, 1 mM Na2HPO4, 10 mM HEPES, and 1% glucose). A volume of 50 µL of H2DCFDA solution in HBSS (final concentration 5 μM) was added to each well, and the cells were incubated for 30 min in the dark at 37 °C. After incubation with the H2DCFDA, fluorescence measurements were conducted using a Perkin-Elmer LS-5B spectrofluorometer (MA, USA) at the following excitation and fluorescence emission wavelengths: λex = 498 nm/λem = 522 nm. The fluorescence intensity of control cells was arbitrarily assigned a value of 100%. The results were expressed as percentages of control, calculated by comparing the fluorescence intensity ratio of the test samples to controls (100%). The fluorescence of samples was denoted as Δf in relation to the control.

In assay [1] the test system is SW620. The experiment in a line: Hydrogen peroxide level, H2DCFDA probe. As to conditions: compound at IC50, 24 h, vs control. The method, then: as §1, §2
A further assay deals with Caco-2. The experiment in a line: Hydrogen peroxide level, H2DCFDA probe. The following applies: compound at IC50, 24 h, vs control. The method, then:
as §1, §2

The subject of the next assay is HT-29. The experiment in a line: Reactive nitrogen species level, DAF-FM probe. As to conditions: compound at IC50, 24 h. The protocol: (§3) Diaminofluorescein-FM diacetate (DAF-FM diacetate, Invitrogen, Carlsbad, CA, USA), a cell-permeable fluorescent probe, is widely utilized for the detection and quantification of reactive nitrogen species (RNS), primarily nitric oxide (NO). […] Upon interaction with NO, however, it undergoes a chemical transformation resulting in the formation of a highly fluorescent benzotriazole derivative with excitation and emission maxima at 495 and 515 nm, respectively.
as §2, with “[…] Fluorescence” for “A volume of 50 µL of H2DCFDA solution in HBSS (final concentration 5 μM) was added to each well, and the cells were incubated for 30 min in the dark at 37 °C. After incubation with the H2DCFDA, fluorescence”, “495” for “498”, “515” for “522”

Assay [2] has as its system SW620. Put plainly: Reactive nitrogen species level, DAF-FM probe. As to conditions: compound at IC50, 24 h. The method, then:
as §3
as §2, with “[…] Fluorescence” for “A volume of 50 µL of H2DCFDA solution in HBSS (final concentration 5 μM) was added to each well, and the cells were incubated for 30 min in the dark at 37 °C. After incubation with the H2DCFDA, fluorescence”, “495” for “498”, “515” for “522”

With `O=C1/C(=C/c2ccccc2)C(c2ccccc2)Oc2ccccc21` (centres unmarked) [Compound 5], the “Effect on H2O2 levels” value in the assay on HCT 116 is “did not affect H2O2 levels”. Moreover, the “Increase in H2O2 levels” value in the assay on SW620 [1] was determined as 15%.

Turning to `O=C1/C(=C/c2ccccc2)COc2ccccc21` [Compound 1], the “Increase in H2O2 levels” value in the assay with Caco-2 was “approximately 25%”. Moreover, the “Change in RNS levels” value in the assay on HT-29 and in the assay with SW620 [2] was “significantly increased RNS levels” in each case.
